Reference: publication PMC2365198, “Chemistry and Pharmacokinetics of Gallium Maltolate, a Compound With High Oral Gallium Bioavailability” (Metal-Based Drugs, 2000)
Several values for one entry are separate records, joined by “and”; a condition that tells them apart may be missing. Identical values can stand only once.

Tests used:
[1] = dog, in vivo, 1.5 mg/kg
[2] = Pharmacokinetics of single oral dose of gallium chloride in cancer patients (data of Collery et al.); type: in vivo, human; conditions: data of ref 12
[3] = set-up: method as in earlier work; conditions: human cancer patients, single oral dose 800 mg (317 mg Ga); cited from earlier work
[4] = Solubility in water; type: physicochemical; conditions: 25 C; listed as GaM
[5] = Stability of dilute aqueous solution as a function of pH (absorbance at 303 nm); type: physicochemical
[6] = human, in vivo, po
[7] = Dog bioavailability study (serum gallium); conditions: healthy young beagle dogs, intraduodenal or oral
[8] = system: healthy human subjects; test: Clinical single-dose escalation study, safety and tolerability
[9] = Clinical single-dose escalation study, pharmacokinetics of oral gallium maltolate (serum and urine gallium); conditions: human; for FAe: cumulative urinary excretion as fraction of administered dose: 72h; for F (V=29.5 L): from V/F
[10] = single oral dose 100 mg [15.7 mg Ga]
[11] = single oral dose 200 mg [31.3 mg Ga]
[12] = single oral dose 300 mg [47.0 mg Ga]
[13] = single oral dose 500 mg [78.4 mg Ga]

In the case of `O=[N+]([O-])[O-].O=[N+]([O-])[O-].O=[N+]([O-])[O-].[Ga+3]` [Ga nitrate, gallium nitrate], the Cmax [1] is reported as 0.31 (0.02) lg/mL, the K01 half life [1] is reported as 0.8(0.2) h and the Tmax [1] is reported as 3.1 (0.4) h. For the same molecule, the beta half life [1] was 9.9(2.4) h.
For `[Cl][Ga]([Cl])[Cl]` [GaCI3, gallium chloride], the “Gallium bioavailability using the estimated value for V/F” value ([2]; human cancer patients, single oral dose 800 mg (317 mg Ga)) is given as “approximately 0.010”, the Estimated oral bioavailability ([2]; human, oral) is given as at most 2% and the “Estimated V/F” value [3] is given as 2862(297) L.
For `Cc1occc(=O)c1[O-].Cc1occc(=O)c1[O-].Cc1occc(=O)c1[O-].[Ga+3]` [gallium maltolate, tris(3-hydroxy-2-methyl-4H-pyran-4-onato)gallium], the Solubility in water [4] was 10.7 ± 0.9 mg/mL and 24(2) mM, the “Dissociation in dilute aqueous solution” value ([5]; 2.5 x 10^-5 M, pH 5.5-8.0) was “little dissociation” and the “Gallium maltolate complex undissociated” value ([5]; dilute aqueous solution (2.5 x 10^-5 M), pH approximately 5.5 to 8) was “at least 98%”. For the same molecule, the “F, range over doses (from V/F with V 29.5 L)” value [6] was 0.25-0.40, the “Absorption of Ga into blood plasma relative to intraduodenal Ga nitrate” value [7] was “several times higher” and the “Change in renal function (serum creatinine clearance, serum urea, BUN clearance, urinary microglobulin, urinalysis)” value ([8]; healthy human subjects, oral) was “none of the subjects who took oral GaM showed any change in renal function”. For the same molecule, the “Serious treatment-related adverse events” value ([8]; healthy human subjects, single oral doses 100-500 mg) was “no reports of serious treatment-related adverse events”, the “Subjects reporting possible drug-related adverse events” value ([8]; healthy human subjects, single oral doses 100-500 mg, mild headache (100 mg), moderate coughs (200 mg)) was “Three of the twelve subjects” and the Tolerability ([8]; healthy human volunteers, single oral doses of 100, 200, 300 and 500 mg) was “very well tolerated”. For the same molecule, the “Dose dependence of absorption” value ([9]; oral, dosage range 100-500 mg) was “dose proportional”, the “Urinary Ga excretion, of the administered dose” value ([9]; oral, over 72h) was “approximately 2%” and the “Ae: cumulative urinary excretion of gallium in 72h” value (from here on “Ae … in 72h”) [9, 10] was 0.35(0.14) mg. The Lag time [9, 10] was 0.32(0.05) h, the “FAe: cumulative urinary excretion as fraction of administered dose” value (from here on “FAe … as fraction of administered dose”) [9, 10] was 0.022(0.001) and the “F (V=29.5 L)” value [9, 10] was 0.28. For the same molecule, the “Ae … in 72h” value [9, 11] was 0.66(0.28) mg, the Lag time [9, 11] was 0.42(0.04) h and the “FAe … as fraction of administered dose” value [9, 11] was 0.021(0.001). For the same molecule, the “F (V=29.5 L)” value [9, 11] was 0.35, the “Ae … in 72h” value [9, 12] was 1.11(0.08) mg and the Lag time [9, 12] was 0.24(0.06) h. The “FAe … as fraction of administered dose” value [9, 12] was 0.023(0.000), the “F (V=29.5 L)” value [9, 12] was 0.40 and the “Ae … in 72h” value [9, 13] was 1.37(0.52) mg. The Lag time [9, 13] was 0.20(0.08) h, the “FAe … as fraction of administered dose” value [9, 13] was 0.018(0.001) and the “F (V=29.5 L)” value [9, 13] was 0.25. For the same molecule, the “Central compartment excretion half life” value ([9]; single oral doses 100-500 mg) was 17 to 21 h and the “Estimated oral gallium bioavailability” value ([9]; single oral doses 100-500 mg, comparison with published i.v. gallium nitrate data) was 25-57%.
